In paper PMC12316308, “Interactions of substrates and phosphinyl containing inhibitors with bacterial and human zinc proteases” (PLOS One, 2025):
Values joined by “and” are separate entries in the source; they are usually repeats but may differ in a detail not shown here. Identical values can stand only once.

How the values were obtained:
[1] = biological target: T1, human MT1-MMP/MMP-14 (catalytic domain) (Homo sapiens, UniProt P50281); assay: Enzyme inhibition kinetics, fluorogenic substrate ES001; assay type: biochemical; settings: inhibitor 10 μM
T1 construct: human MT1-MMP/MMP-14 (catalytic domain); purchased Calbiochem (San Diego, CA, USA)

MMP-12 = test system: MMP-12; parameters: method as in PMID 27996256, PMID 23343195; settings: cited from earlier work

NC(=O)C(Cc1c[nH]c2ccccc12)NC(=O)C(CCCc1ccccc1)CP(=O)(O)C(Cc1ccccc1)NC(=O)OCc1ccccc1 (stereo not drawn) [H-2]
vi/v0 (relative enzyme activity with inhibitor), single determinations ([1]; preincubation 15 min): 0.1646 and 0.1715 and 0.1368 and 0.1654 | vi/v0 (relative enzyme activity with inhibitor), single determinations ([1]; preincubation 30 min): 0.1465 and 0.1449 and 0.1477 and 0.1505

NC(=O)C(CCC(=O)O)NC(=O)C(CCC(=O)O)NC(=O)C(Cc1cc(-c2ccc(-c3cccc(Cl)c3)cc2)no1)CP(=O)(O)c1ccc(Br)cc1 (stereo not drawn) [H-1]
pH dependence of Ki (MMP-12): increasing approximately ten times for each unit increase in buffer pH
